According to EP2457572A1, “Use of atomic quantum clusters (aqcs) in the prevention of cell proliferative disorders, viral infections and autoimmune diseases” (Universidade De Santiago De Compostela, priority 2010, dated 2012):

System: HL-60 cells
Assay: Activated caspase 3 by flow cytometry (PE Active Caspase-3 Apoptosis kit)
Assay type: cell-based
Settings: camptothecin 30µM, non treated control 7.4 %
Description: HL-60 cells were incubated with the various treatments. […] (It is well known that caspase 3 is the main effector of apoptosis mediated by caspase activation).

`CC[C@@]1(O)C(=O)OCc2c1cc1n(c2=O)Cc2cc3ccccc3nc2-1` [camptothecin] was tested, and the “cells positive for activated caspase 3” value was 32.4%.
